The values below come from ChEMBL document CHEMBL1135041, “Synthesis and first biological evaluation of 1-aza-9-oxafluorenes as novel lead structures for the development of small-sized cytostatics” (2002).

Holding throughout (format): functional
Holding throughout (conditions): Homo sapiens

In one experiment the test system is SF-268. The experiment is described as follows: Growth inhibition against SF-268 cancer cell line using SRB protein cytotoxicity assay.
In the next experiment the test system is IGROV-1. Description: Growth inhibition against IGROVI (ovarian cancer) cell line using SRB protein cytotoxicity assay.
The subject of the next experiment is KM12. The experiment is described as follows: Growth inhibition against KM12 (colon cancer) cancer cell line using SRB protein cytotoxicity assay.
In the next experiment the test system is NCI/ADR-RES. The experiment is described as follows: Growth inhibition against NCI/ADR-RES (breast cancer) cell line using SRB protein cytotoxicity assay.
For another experiment, the system named is SNB-75. Description: Growth inhibition against SNB-75 (CNS cancer) cell line using SRB protein cytotoxicity assay.

Structures are written as SMILES. A value given as a limit tells only on which side of the number the result lay.

For orientation: GI50 means the concentration giving 50% growth inhibition.

`CC(=O)c1cnc2oc3ccc(O)cc3c2c1C` returned a GI50 with SF-268 of more than 100 µM.
As to `CCOC(=O)c1cnc2oc3ccc(O)cc3c2c1-c1ccccc1`, the GI50 in the experiment with IGROV-1 was determined as 2.5 µM; in the experiment on KM12, 5.1 µM; in the experiment on NCI/ADR-RES it was 4.7 µM; in the experiment on SF-268, 29.7 µM; in the experiment on SNB-75, 16.5 µM.
For `CC(=O)c1cnc2oc3ccc(O)cc3c2c1-c1ccccc1` the same measures were 5 µM, 40.8 µM, 19.6 µM, 27.7 µM and 2.6 µM.
For `CCOC(=O)c1cnc2oc3ccc(O)cc3c2c1C` the same measures were 86 µM, 70.3 µM, 41 µM, 69.9 µM and 26 µM.
